Laboratory results reported in patent US20100256147A1, “BIARYL ACETAMIDE DERIVATIVES AS MODULATORS OF THE KINASE CASCADE FOR THE TREATMENT OF HEARING LOSS, OSTEOPOROSIS AND CELL PROLIFERATION DISORDERS” (priority 2007, published 2010).

Columns and labels:
Type in all cases: cell-based
Ba/F3-JAK2 = Ba/F3-JAK2 cell growth inhibition; conditions: Ba/F3-JAK2 cells
c-Src527F/NIH 3T3 = test: BrdU cell growth inhibition, c-Src527F/NIH 3T3; conditions: Mus musculus, NIH3T3; c-Src527F/NIH 3T3 cells; read-out: c-Src527F/NIH 3T3 GI 50
Experimental: (§1) The GI50s for the compounds of the invention is assayed as described herein.
The c-Src 3T3 is a mouse fibroblast NIH 3T3 normal cell line that has been transfected with a point-mutant of human c-Src wherein tyrosine 527 has been converted to a phenylalanine. This mutation results in “constitutively active” c-Src because phosphorylation on tyrosine 527 results in auto-inhibition of Src by having it fold back on its own SH2 domain. With a Phe there, this phosphorylation can't occur and therefore auto-inhibition can't occur. Thus, the always fully active mutant Src then converts the normal mouse fibroblasts into rapidly growing tumor cells. […]
In the BrdU Assay for cell growth inhibition, quantitation of cell proliferation is based on the measurement of BrdU incorporation during DNA synthesis. […]
The growth inhibition (G1) is determined from the formula G1=(T0−Tr×100/T0−CONn) where T0 is the BrdU growth of untreated cells at time “0”, Tn, is the BrdU growth of treated cells at day “n” and CONn is the control BrdU growth of control cells at day “n”. […]
(§2) Seeded 96 well plates are allowed to attach overnight for 18-24 hours, either at 37° C. and 5% CO2 for HT-29 or at 37° C. and 10% CO2 for c-Src 3T3. Approx 18-24 hours after seeding, the initial growth of cells (T0) is determined for untreated cells using the BrdU assay. […] Plates are assayed for BrdU and the data is analyzed as above for GI50.

Ba/F3-JAK3 = Ba/F3-JAK3 cell growth inhibition; conditions: Ba/F3-JAK3 cells
HT29 = test: BrdU cell growth inhibition, HT29; conditions: Homo sapiens, HT-29; HT29 cells; read-out: HT29 GI 50
Experimental: as §1
The HT29 cell line is a NCI standard human colon carcinoma cell line. HT-29 cells are obtained from ATCC at passage 125 and are used for inhibition studies between passage 126-151. HT29 cells are routinely cultured in McCoy's 5A medium supplemented with Fetal Bovine Serum (1.5% v/v) and L-glutamine (2 mM).
In the BrdU Assay for cell growth inhibition, quantitation of cell proliferation is based on the measurement of BrdU incorporation during DNA synthesis. The Cell Proliferation ELISA BrdU assay kit (colorimetric) is obtained from Roche Applied Science and performed as per vendor instructions.
The growth inhibition (G1) is determined from the formula G1=(T0−Tr×100/T0−CONn) where T0 is the BrdU growth of untreated cells at time “0”, Tn, is the BrdU growth of treated cells at day “n” and CONn is the control BrdU growth of control cells at day “n”. The GI50 is extrapolated and the data plotted using XL-Fit 4.0 software. […]
as §2

[1] = test system: known Src protein substrates; test: Phosphorylation of Src substrates in c-Src (527F) transformed NIH3T3 cells
Experimental: (§3) Compounds of the invention may be Src signaling inhibitors that bind in the Src peptide substrate site. The activity of various compounds of the invention has been studied in c-Src (527F, constitutively active and transforming) transformed NIH3T3 cells and in human colon cancer cells (HT29).
(§4) HT29 (colon cancer) and c-Src527F/NIH-3T3 (Src transformed) cell lines are treated with a compound of the invention or with AstraZeneca's ATP competitive Src inhibitor AZ28 (KX2-328). AZ28 serves as a positive comparator to show what a validated Src inhibitor should do in these assays. After treatment with compound, cells are lysed, subjected to PAGE and probed with a battery of antibodies. […] In addition, off-target protein phosphorylation is also investigated. Further, induction of apoptosis is evaluated via Caspase 3 cleavage. Multiple doses of each compound are tested because the trends in response to increasing drug concentration are the most reliable indicator of activity.
(§5) A dose response curve is generated using the GI50 for the compounds of the invention in each of the two cell lines as the 1× concentration. […] The same range of multiples of the GI50 for AZ28 in these two cell lines are run as a comparison.

[2] = test system: known Src protein substrates; test: Phosphorylation of Src substrates in HT29 cells; conditions: human colon cancer cells (HT29)
Experimental: as §3, §4, §5

PLC/PRF/5 = test: MTT growth inhibition, PLC/PRF/5; conditions: Homo sapiens, 8.0×10^3 cells/wells, 1.5% FBS, 78 Hr, normalized response data
Experimental: (§6) Samples of the test compounds are formulated in 100% DMSO to obtain 20 mM stock solutions; stored @ 4° C. The IC50s and IC80s are determined as described below. Huh7, WRL-68, PLC/PRF/5, Hep 3B, and Hep G2 human cancer lines are routinely cultured and maintained in a basal medium containing 2% FBS @ 37° C., 5% CO2. Cells are seeded @ 4.0×10^3/190 μl and 8.0×10^3/190 μl per well of a 96-well plate. The assay medium is basal medium/1.5% FBS. […] The test article dilutions are prepared as follows: 20 mM stock solution samples are diluted serially in basal medium/1.5% FBS using 1:3 dilutions, yielding 20× concentrations; 131 μM to 0.24 nM range. 10 μL of 20× dilutions are added to the appropriate wells (n=3) containing 190 μL cancer cell line; 6561 nM to 0.012 nM range of final concentrations. Vehicle control contains cells, no sample. Medium control contains cells, no sample, 0.03% DMSO (highest DMSO concentration present in samples). The treated cells are incubated for 72 hours at 37° C., 5% CO2. On day 3, 10 μL MTT (5 mg/mL) are added to each well. Cells are incubated in the presence of MTT for 4 hours @ 37° C., 5% CO2. 90 μL 10% SDS(+HCl) is added to each well to lyse cells and solubilize formazan.

ACHN = test: Tumor growth inhibition, ACHN; conditions: Homo sapiens, read-out: Dasatinib GI50, renal cell adenocarcinoma
Hep 3B = test: MTT growth inhibition, Hep 3B; conditions: Homo sapiens, Hep3B, 8.0×10^3 cells/wells, 1.5% FBS, 78 Hr, normalized response data
Experimental: as §6

769-P = test: Tumor growth inhibition, 769-P; conditions: Homo sapiens, read-out: Dasatinib GI50, renal cell adenocarcinoma
HuH7 = test: MTT growth inhibition, HuH7; conditions: Homo sapiens, Huh-7, 8.0×10^3 cells/wells, 1.5% FBS, 78 Hr, normalized response data
Experimental: as §6, with “formazan. […] OD570 measurements are taken, e.g., using BioTek Synergy HT multiplatform microplate reader. Growth inhibition curves IC50s and IC80s are determined using GraphPad Prism 5 statistical software.” for “formazan.”

786-O = test: Tumor growth inhibition, 786-O; conditions: Homo sapiens, 786-0, read-out: Dasatinib GI50, renal cell adenocarcinoma
Caki-2 = test: Tumor growth inhibition, Caki-2; conditions: Homo sapiens, read-out: Dasatinib GI50; Caki-2, clear cell carcinoma

## O=C(Cc1ccc(-c2ccc(OCCN3CCOCC3)cc2F)nc1)NCCC1CCCC1
Ba/F3-JAK2
  IC50: 1320 nM
c-Src527F/NIH 3T3
  GI50: 1160 nM
Ba/F3-JAK3
  IC50: 1200 nM
HT29
  GI50: 1230 nM

## C[C@@H](NC(=O)Cc1ccc(-c2ccc(OCCN3CCOCC3)cc2F)nc1)C1CCCCC1
Ba/F3-JAK2
  IC50: 2080 nM
c-Src527F/NIH 3T3
  GI50: 1230 nM
Ba/F3-JAK3
  IC50: 1290 nM
HT29
  GI50: 1060 nM

## O=C(Cc1ccc(-c2ccc(OCCN3CCOCC3)cc2)cn1)NCc1ccccc1 [KX2-391]
[1]
  phosphorylation level of known Src protein substrates: reduce the phosphorylation level of known Src protein substrates in a dose-dependent fashion
[2]
  phosphorylation level of known Src protein substrates: reduce the phosphorylation level of known Src protein substrates in a dose-dependent fashion

## Cc1nc(Nc2ncc(C(=O)Nc3c(C)cccc3Cl)s2)cc(N2CCN(CCO)CC2)n1 [Dasatinib]
PLC/PRF/5
  IC80: > 50000 nM
ACHN
  GI50: 21.1 nM
Hep 3B
  IC80: > 50000 nM
769-P
  GI50: 46.3 nM
HuH7
  IC50: 1970 nM
  IC80: 7140 nM
786-O
  GI50: 2010 nM
Caki-2
  GI50: 14.2 nM
